In PubChem BioAssay (NCI):
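1) Cells in 96-well plates. 2) Compound, 48 h, 5 concentrations. 3) Linear interpolation between surrounding doses. 4) Unreached endpoint = highest concentration. TGI: total growth inhibition.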

What was measured:
Experiment in all cases: NCI-60 cell line screen, 48 h
[1] = tested on: PC-3 prostate
[2] = tested on: OVCAR-8 ovarian
[3] = tested on: K-562 leukemia
[4] = tested on: SK-OV-3 ovarian
[5] = tested on: MDA-MB-435
[6] = tested on: T-47D breast
[7] = tested on: A498 renal
[8] = tested on: NCI-H23 lung
[9] = tested on: EKVX NSCLC
[10] = tested on: MOLT-4 leukemia
[11] = tested on: COLO 205 colon
[12] = tested on: UACC-62 melanoma
[13] = tested on: HS 578T breast
[14] = tested on: TK-10 renal
[15] = tested on: UO-31 renal
[16] = tested on: HL-60(TB) leukemia
[17] = tested on: CCRF-CEM leukemia
[18] = tested on: SK-MEL-2 melanoma
[19] = tested on: MDA-MB-231 breast
[20] = tested on: SR leukemia
[21] = tested on: SK-MEL-5 melanoma
[22] = tested on: SF-295 CNS
[23] = tested on: HCT-15 colon
[24] = tested on: HOP-62 NSCLC
[25] = tested on: A549 NSCLC
[26] = tested on: MALME-3M melanoma
[27] = tested on: SF-268 CNS
[28] = tested on: IGROV1 ovarian
[29] = tested on: ACHN renal
[30] = tested on: SNB-75 CNS
[31] = tested on: OVCAR-4 ovarian
[32] = tested on: OVCAR-5 ovarian
[33] = tested on: NCI/ADR-RES ovarian
[34] = tested on: HT29 colon
[35] = tested on: SK-MEL-28 melanoma
[36] = tested on: SN12C renal
[37] = tested on: U251 CNS
[38] = tested on: MCF7 breast
[39] = tested on: SW-620 colon
[40] = tested on: MDA-N
[41] = tested on: UACC-257 melanoma
[42] = tested on: CAKI-1 renal
[43] = tested on: M14 melanoma
[44] = tested on: BT-549 breast
[45] = tested on: SF-539 CNS
[46] = tested on: RXF 393 renal
[47] = tested on: RPMI-8226 leukemia
[48] = tested on: NCI-H522 lung
[49] = tested on: SNB-19 CNS
[50] = tested on: KM12 colon
[51] = tested on: NCI-H226 lung
[52] = tested on: 786-0 renal
[53] = tested on: HCC-2998 colon
[54] = tested on: HCT-116 colon
[55] = tested on: NCI-H460 lung
[56] = tested on: LOX IMVI melanoma

## CN(C)CCn1nc2c3c(c(C(=O)NCCCN(C)CCCNC(=O)c4ccc5c6c(nn5CCN(C)C)-c5ccccc5Nc46)ccc31)Nc1ccccc1-2
[1]
  TGI: 834 nM
[2]
  TGI: 2970 nM
[3]
  TGI: 1890 nM
[4]
  TGI: 407 nM
[5]
  TGI: 415 nM
[6]
  TGI: 10500 nM
[7]
  TGI: 623 nM
[8]
  TGI: 617 nM
[9]
  TGI: 505 nM
[10]
  TGI: 1580 nM
[11]
  TGI: 227 nM
[12]
  TGI: 424 nM
[13]
  TGI: 1860 nM
[14]
  TGI: 3320 nM
[15]
  TGI: 3220 nM
[16]
  TGI: 944 nM
[17]
  TGI: 2630 nM
[18]
  TGI: 243 nM
[19]
  TGI: 518 nM
[20]
  TGI: 1200 nM
[21]
  TGI: 1460 nM
[22]
  TGI: 2080 nM
[23]
  TGI: 16600 nM
[24]
  TGI: 574 nM
[25]
  TGI: 332 nM
[26]
  TGI: 280 nM
[27]
  TGI: 549 nM
[28]
  TGI: 15600 nM
[29]
  TGI: 6260 nM
[30]
  TGI: 272 nM
[31]
  TGI: 658 nM
[32]
  TGI: 751 nM
[33]
  TGI: > 71200 nM
[34]
  TGI: 561 nM
[35]
  TGI: 1150 nM
[36]
  TGI: 708 nM
[37]
  TGI: 452 nM
[38]
  TGI: 582 nM
[39]
  TGI: 3490 nM
[40]
  TGI: 318 nM
[41]
  TGI: 1090 nM
[42]
  TGI: 3300 nM
[43]
  TGI: 1580 nM
[44]
  TGI: 1650 nM
[45]
  TGI: 2190 nM
[46]
  TGI: 1450 nM
[47]
  TGI: 1370 nM
[48]
  TGI: 117 nM
[49]
  TGI: 748 nM
[50]
  TGI: 1330 nM
[51]
  TGI: 217 nM
[52]
  TGI: 1280 nM
[53]
  TGI: 245 nM
[54]
  TGI: 525 nM
[55]
  TGI: 432 nM
[56]
  TGI: 1280 nM
